According to the NIST ThermoML archive (doi:10.1016/j.jct.2019.02.011):

Test: xn = mol fraction of the nth substance listed
Conditions: Liquid, Vibrating tube method

COC(=O)OC [dimethyl carbonate] + CO
mass density [kg/m3]
Conditions	100 kPa	5000 kPa	10000 kPa	15000 kPa	20000 kPa	25000 kPa	30000 kPa	35000 kPa	40000 kPa
293.15 K, x1 = 0.0253	–	–	–	819.01	822.93	826.85	830.45	833.84	837.02
293.15 K, x1 = 0.0503	–	–	–	832.64	836.57	840.49	844.1	847.49	850.69
293.15 K, x1 = 0.0745	–	–	–	845.15	849.09	853.02	856.63	860.04	863.25
293.15 K, x1 = 0.101	–	–	–	858.22	862.17	866.1	869.72	873.13	876.36
293.15 K, x1 = 0.1502	–	–	–	880.67	884.64	888.56	892.2	895.68	898.94
293.15 K, x1 = 0.2059	–	–	–	903.9	907.88	911.86	915.51	919	922.29
293.15 K, x1 = 0.25	–	–	916.63	920.72	924.71	928.69	932.36	935.81	939.11
293.15 K, x1 = 0.3004	–	–	934.21	938.3	942.31	946.29	949.97	953.48	956.8
293.15 K, x1 = 0.3426	–	–	947.86	951.96	955.98	959.96	963.65	967.16	970.51
293.15 K, x1 = 0.3984	–	–	964.54	968.64	972.68	976.66	980.36	983.88	987.25
293.15 K, x1 = 0.4514	–	–	979.07	983.17	987.22	991.16	994.86	998.4	1001.78
293.15 K, x1 = 0.5054	–	–	992.67	996.78	1000.83	1004.77	1008.44	1011.98	1015.38
293.15 K, x1 = 0.5509	–	–	1003.27	1007.38	1011.44	1015.38	1019.05	1022.6	1026.01
293.15 K, x1 = 0.6002	–	–	1013.92	1018.04	1022.11	1026.05	1029.73	1033.28	1036.7
293.15 K, x1 = 0.6469	–	–	1023.3	1027.41	1031.49	1035.43	1039.12	1042.68	1046.11
293.15 K, x1 = 0.6993	–	–	1033.07	1037.19	1041.28	1045.22	1048.91	1052.48	1055.92
293.15 K, x1 = 0.7496	–	–	1041.86	1045.98	1050.08	1054.02	1057.72	1061.24	1064.69
293.15 K, x1 = 0.799	–	–	1050.01	1054.09	1058.13	1062.08	1065.78	1069.31	1072.77
293.15 K, x1 = 0.837	–	–	1055.93	1060.01	1064.06	1068.01	1071.71	1075.29	1078.71
293.15 K, x1 = 0.9093	–	–	1066.58	1070.66	1074.72	1078.67	1082.38	1085.91	1089.35
293.15 K, x1 = 0.9239	–	–	1068.62	1072.7	1076.76	1080.71	1084.42	1087.96	1091.39
293.15 K, x1 = 0.9575	–	–	1073.25	1077.33	1081.4	1085.34	1089.06	1092.6	1096.04
293.15 K, x1 = 0.9861	–	–	1077.09	1081.17	1085.23	1089.18	1092.9	1096.44	1099.94
293.15 K, x1 = 1	–	–	1078.93	1083.01	1087.08	1091.03	1094.75	1098.34	1101.84
298.15 K, x1 = 0.0253	801.12	805.88	810.17	814.5	818.56	–	–	–	–
298.15 K, x1 = 0.0503	814.67	819.42	823.72	828.05	832.13	–	–	–	–
298.15 K, x1 = 0.0745	827.15	831.91	836.21	840.55	844.63	–	–	–	–
298.15 K, x1 = 0.101	840.09	844.85	849.21	853.54	857.59	–	–	–	–
298.15 K, x1 = 0.1502	862.34	867.1	871.47	875.8	879.93	–	–	–	–
298.15 K, x1 = 0.2059	885.36	890.12	894.5	898.84	902.99	–	–	–	–
298.15 K, x1 = 0.25	902	906.75	911.19	915.53	919.64	–	–	–	–
298.15 K, x1 = 0.3004	919.49	924.24	928.68	933.03	937.16	–	–	–	–
298.15 K, x1 = 0.3426	933.01	937.77	942.22	946.56	950.71	–	–	–	–
298.15 K, x1 = 0.3984	949.56	954.26	958.77	963.12	967.28	–	–	–	–
298.15 K, x1 = 0.4514	964.01	968.71	973.22	977.52	981.7	–	–	–	–
298.15 K, x1 = 0.5054	977.58	982.28	986.75	991.05	995.2	–	–	–	–
298.15 K, x1 = 0.5509	988.15	992.8	997.28	1001.58	–	–	–	–	–
298.15 K, x1 = 0.6002	998.73	1003.39	1007.87	1012.12	–	–	–	–	–
298.15 K, x1 = 0.6469	1008.04	1012.69	1017.17	1021.43	–	–	–	–	–
298.15 K, x1 = 0.6993	1017.79	1022.44	1026.93	1031.19	–	–	–	–	–
298.15 K, x1 = 0.7496	1026.56	1031.16	1035.66	1039.91	–	–	–	–	–
298.15 K, x1 = 0.799	1034.65	1039.25	1043.74	1047.95	–	–	–	–	–
298.15 K, x1 = 0.837	1040.55	1045.15	1049.65	1053.86	–	–	–	–	–
298.15 K, x1 = 0.9093	1051.17	1055.73	1060.23	1064.44	–	–	–	–	–
298.15 K, x1 = 0.9239	1053.21	1057.76	1062.27	1066.48	–	–	–	–	–
298.15 K, x1 = 0.9575	1057.78	1062.33	1066.84	1071.05	–	–	–	–	–
298.15 K, x1 = 0.9861	1061.61	1066.16	1070.67	1074.88	–	–	–	–	–
298.15 K, x1 = 1	1063.45	1068	1072.51	1076.72	–	–	–	–	–
